According to patent US8722665B2, “Cinnamido-pyrrolo[2,1-C][1,4]benzodiazepines as potential anticancer agents and process for the preparation thereof” (Council of Scientific & Industrial Research, priority 2008, dated 2014):

Key:
Test in all cases: In vitro cytotoxicity (SRB)
Type in all cases: cell-based, human
HCT-116 = HCT-116 (Colon); 48 h continuous drug exposure
Description: (§1) The compounds were evaluated for in vitro anticancer activity against sixty human tumour cells derived from nine cancer types (leukemia, non-small-cell lung, colon, CNS, melanoma, ovarian, prostate, and breast cancer) as shown in Table 1a. For each compound, dose response curves for each cell line were measured at a minimum of five concentrations at 10 fold dilutions. A protocol of 48 h continuous drug exposure was used and a sulforhodamine B (SRB) protein assay was used to estimate cell viability or growth. The concentration causing 50% cell growth inhibition (GI50), total cell growth inhibition (TGI 0% growth) and 50% cell death (LC50, −50% growth) compared with the control was calculated. The Log10 GI50 (concentration in mol/L causing 50% growth inhibition) values for Cinnamido-pyrrolo[2,1-c][1,4]benzodiazepine (8b) is listed in Table 2.

OVCAR-8 = OVCAR-8 (Ovarian); 48 h continuous drug exposure
Description: as §1

SF-268 = SF-268 (CNS); 48 h continuous drug exposure
Description: as §1

SNB-19 = SNB-19 (CNS); 48 h continuous drug exposure
Description: as §1

SK-MEL-28 = SK-MEL-28 (Melanoma); 48 h continuous drug exposure
Description: as §1

RPMI-8226 = RPMI-8226 (Leukemia); 48 h continuous drug exposure
Description: as §1

CAKI-1 = CAKI-1 (Renal); 48 h continuous drug exposure
Description: as §1

ACHN = ACHN (Renal); 48 h continuous drug exposure
Description: as §1

SN12C = SN12C (Renal); 48 h continuous drug exposure
Description: as §1

UACC-62 = UACC-62 (Melanoma); 48 h continuous drug exposure
Description: as §1

SW-620 = SW-620 (Colon); 48 h continuous drug exposure
Description: as §1

NCI-H460 = NCI-H460 (Non-small cell lung); 48 h continuous drug exposure
Description: as §1

NCI-H522 = NCI-H522 (Non-small cell lung); 48 h continuous drug exposure
Description: as §1

OVCAR-3 = OVCAR-3 (Ovarian); 48 h continuous drug exposure
Description: as §1

SK-OV-3 = SK-OV-3 (Ovarian); 48 h continuous drug exposure
Description: as §1

MDA-MB-435 = MDA-MB-435 (Breast); 48 h continuous drug exposure
Description: as §1

RXF 393 = RXF 393 (Renal); 48 h continuous drug exposure
Description: as §1

HT29 = HT29 (Colon); 48 h continuous drug exposure
Description: as §1

MDA-MB-468 = MDA-MB-468 (Breast); 48 h continuous drug exposure
Description: as §1

COLO 205 = COLO 205 (Colon); 48 h continuous drug exposure
Description: as §1

UACC-257 = UACC-257 (Melanoma); 48 h continuous drug exposure
Description: as §1

MCF7 = MCF7 (Breast); 48 h continuous drug exposure
Description: as §1

SR = SR (Leukemia); 48 h continuous drug exposure
Description: as §1

M14 = M14 (Melanoma); 48 h continuous drug exposure
Description: as §1

MALME-3M = MALME-3M (Melanoma); 48 h continuous drug exposure
Description: as §1

HOP-92 = settings: 48 h continuous drug exposure
Description: as §1

KM12 = KM12 (Colon); 48 h continuous drug exposure
Description: as §1

CCRF-CEM = CCRF-CEM (Leukemia); 48 h continuous drug exposure
Description: as §1

786-0 = 786-0 (Renal); 48 h continuous drug exposure
Description: as §1

HCT-15 = HCT-15 (Colon); 48 h continuous drug exposure
Description: as §1

NCI-H23 = NCI-H23 (Non-small cell lung); 48 h continuous drug exposure
Description: as §1

K-562 = K-562 (Leukemia); 48 h continuous drug exposure
Description: as §1

A498 = A498 (Renal); 48 h continuous drug exposure
Description: as §1

U251 = U251 (CNS); 48 h continuous drug exposure
Description: as §1

Question: What does the source list for `COc1cc(/C=C/C(=O)N2CCN(C(=O)c3cc(OC)c(OC)c(OC)c3)CC2)ccc1OCCCOc1cc2c(cc1OC)C(=O)N1CCC[C@H]1C=N2` [8b, 7-methoxy-8-{3-(2-methoxy-4-(E)-3-oxo-3-[4-(3,4,5-trimethoxybenzoyl)piperazino]-1-propenylphenoxy)propoxy}-(11aS)-2,3,5,11^a-tetrahydro-5H-pyrrolo[2,1-c][1,4]benzo-diazepine-5-one]?
Answer: GI50 (HCT-116): 200 nM; GI50 (OVCAR-8): 260 nM; GI50 (SF-268): 320 nM; GI50 (SNB-19): 330 nM; GI50 (SK-MEL-28): 210 nM; GI50 (RPMI-8226): 650 nM; GI50 (CAKI-1): 1120 nM; GI50 (ACHN): 2750 nM; GI50 (SN12C): 330 nM; GI50 (UACC-62): 170 nM; GI50 (SW-620): 190 nM; GI50 (NCI-H460): 330 nM; GI50 (NCI-H522): 660 nM; GI50 (OVCAR-3): 290 nM; GI50 (SK-OV-3): 490 nM; GI50 (MDA-MB-435): 170 nM; GI50 (RXF 393): 200 nM; GI50 (HT29): 400 nM; GI50 (MDA-MB-468): 140 nM; GI50 (COLO 205): 180 nM; GI50 (UACC-257): 270 nM; GI50 (MCF7): 130 nM; GI50 (SR): 20 nM; GI50 (M14): 370 nM; GI50 (MALME-3M): 200 nM; GI50 (HOP-92; HOP-92, first line so named (Non-small cell lung)): 320 nM; GI50 (HOP-92; HOP-92, second line so named (Non-small cell lung)): 170 nM; GI50 (KM12): 280 nM; GI50 (CCRF-CEM): 250 nM; GI50 (786-0): 490 nM; GI50 (HCT-15): 3390 nM; GI50 (NCI-H23): 320 nM; GI50 (K-562): 150 nM; GI50 (A498): 210 nM; GI50 (U251): 270 nM
